{"source": "patent US20260234135A1", "about": "“CRYSTALLINE FORMS OR SALTS OF A DEUTERATED COMPOUND” (ALEBUND PHARMACEUTICALS (HONG KONG) LIMITED, priority 2023, published 2026)", "key": {"[1]": {"experiment": "Hygroscopicity evaluation by DVS at 25° C.", "format": "physicochemical", "procedure": "DVS was measured via a SMS (Surface Measurement Systems) DVS Intrinsic. The relative humidity at 25° C. were calibrated against deliquescence point of LiCl, Mg(NO3)2 and KCl."}, "[2]": {"settings": "for HPLC Purity (area %), main peak RRT 1.00 / HPLC Reults of initial (%): listed as Free acid Form B"}, "physchem": {"experiment": "physchem", "settings": "thermodynamic from solid"}, "[3]": {"experiment": "Approximate solubility in single solvents at RT", "format": "physicochemical", "procedure": "Approximately 2 mg of sample was added into a 3-mL glass vial. Corresponding solvents were added stepwise (50 μL→50 μL→100 μL→200 μL→600 μL→1000 μL) into the vials until the solids were dissolved visually or a total volume of 2 mL was reached. The ranges of approximate solubility were calculated according to the mass of sample, volume of solvent and observation. Result summarized in Table 3 was used to guide the solvent selection in polymorph screening."}, "[4]": {"settings": "SGF, 37 °C, simulated gastric fluid"}, "[5]": {"settings": "pH 4.5 (KAc) buffer, 37 °C, pH 4.5, aqueous buffer"}, "[6]": {"settings": "pH 6.8 buffer (K2HPO3 + KH2PO3), 37 °C, pH 6.8, aqueous buffer"}, "[7]": {"settings": "pH 8.0 buffer (K2HPO3 + KH2PO3), 37 °C, pH 8, aqueous buffer"}}, "note": "Where two headings read alike, the source gives them in different places.", "data": [{"smiles": "[2H]C([2H])(Cc1nc(-c2ccccc2)oc1C)Oc1ccc(C[C@H](OC)C(=O)O)c2sccc12", "note": "[free acid Form B]", "values": [{"measurement": "Hygroscopicity", "setting": "[1]; DVS, 25° C.", "value": "non-hygroscopic"}, {"measurement": "Water uptake up to 80% RH", "setting": "[1]; DVS, 25° C.", "value": 0.07, "unit": "%"}, {"measurement": "Form change after DVS test", "setting": "[1]; XRPD after DVS", "value": "No form change"}, {"measurement": "Area (%) peak 1, RRT 0.88", "setting": "[2]; 40° C./75% RH, 2 weeks", "value": 0.20, "unit": "%"}, {"measurement": "Area (%) peak 2, RRT 1.00 (main peak)", "setting": "[2]; 40° C./75% RH, 2 weeks", "value": 99.50, "unit": "%"}, {"measurement": "Area (%) peak 3, RRT 1.14", "setting": "[2]; 40° C./75% RH, 2 weeks", "value": 0.11, "unit": "%"}, {"measurement": "Area (%) peak 4, RRT 1.34", "setting": "[2]; 40° C./75% RH, 2 weeks", "value": 0.20, "unit": "%"}, {"measurement": "Area (%) peak 1, RRT 0.88", "setting": "[2]; 40° C./75% RH, 4 weeks", "value": 0.23, "unit": "%"}, {"measurement": "Area (%) peak 2, RRT 1.00 (main peak)", "setting": "[2]; 40° C./75% RH, 4 weeks", "value": 99.47, "unit": "%"}, {"measurement": "Area (%) peak 3, RRT 1.14", "setting": "[2]; 40° C./75% RH, 4 weeks", "value": 0.11, "unit": "%"}, {"measurement": "Area (%) peak 4, RRT 1.34", "setting": "[2]; 40° C./75% RH, 4 weeks", "value": 0.19, "unit": "%"}, {"measurement": "Area (%) peak 1, RRT 0.88", "setting": "[2]; 40° C./75% RH, 8 weeks", "value": 0.20, "unit": "%"}, {"measurement": "Area (%) peak 2, RRT 1.00 (main peak)", "setting": "[2]; 40° C./75% RH, 8 weeks", "value": 99.52, "unit": "%"}, {"measurement": "Area (%) peak 3, RRT 1.14", "setting": "[2]; 40° C./75% RH, 8 weeks", "value": 0.09, "unit": "%"}, {"measurement": "Area (%) peak 4, RRT 1.34", "setting": "[2]; 40° C./75% RH, 8 weeks", "value": 0.19, "unit": "%"}, {"measurement": "HPLC Purity (area %), main peak RRT 1.00", "setting": "[2]; 40° C./75% RH/open, 2 weeks", "value": 99.50, "unit": "area %"}, {"measurement": "HPLC Purity (area %), main peak RRT 1.00", "setting": "[2]; 40° C./75% RH/open, 4 weeks", "value": 99.47, "unit": "area %"}, {"measurement": "HPLC Reults of initial (%)", "setting": "[2]; 40° C./75% RH/open, 4 weeks", "value": 100.00, "unit": "%"}, {"measurement": "HPLC Purity (area %), main peak RRT 1.00", "setting": "[2]; 40° C./75% RH/open, 8 weeks", "value": 99.52, "unit": "area %"}, {"measurement": "HPLC Reults of initial (%)", "setting": "[2]; 40° C./75% RH/open, 8 weeks", "value": 100.05, "unit": "%"}, {"measurement": "Area (%) peak 1, RRT 0.88", "setting": "[2]; 60° C., 2 weeks", "value": 0.20, "unit": "%"}, {"measurement": "Area (%) peak 2, RRT 1.00 (main peak)", "setting": "[2]; 60° C., 2 weeks", "value": 99.49, "unit": "%"}, {"measurement": "Area (%) peak 3, RRT 1.14", "setting": "[2]; 60° C., 2 weeks", "value": 0.11, "unit": "%"}, {"measurement": "Area (%) peak 4, RRT 1.34", "setting": "[2]; 60° C., 2 weeks", "value": 0.20, "unit": "%"}, {"measurement": "Area (%) peak 1, RRT 0.88", "setting": "[2]; 60° C., 4 weeks", "value": 0.22, "unit": "%"}, {"measurement": "Area (%) peak 2, RRT 1.00 (main peak)", "setting": "[2]; 60° C., 4 weeks", "value": 99.47, "unit": "%"}, {"measurement": "Area (%) peak 3, RRT 1.14", "setting": "[2]; 60° C., 4 weeks", "value": 0.11, "unit": "%"}, {"measurement": "Area (%) peak 4, RRT 1.34", "setting": "[2]; 60° C., 4 weeks", "value": 0.20, "unit": "%"}, {"measurement": "Area (%) peak 1, RRT 0.88", "setting": "[2]; 60° C., 8 weeks", "value": 0.20, "unit": "%"}, {"measurement": "Area (%) peak 2, RRT 1.00 (main peak)", "setting": "[2]; 60° C., 8 weeks", "value": 99.51, "unit": "%"}, {"measurement": "Area (%) peak 3, RRT 1.14", "setting": "[2]; 60° C., 8 weeks", "value": 0.10, "unit": "%"}, {"measurement": "Area (%) peak 4, RRT 1.34", "setting": "[2]; 60° C., 8 weeks", "value": 0.20, "unit": "%"}, {"measurement": "HPLC Purity (area %), main peak RRT 1.00", "setting": "[2]; 60° C./close, 2 weeks", "value": 99.49, "unit": "area %"}, {"measurement": "HPLC Purity (area %), main peak RRT 1.00", "setting": "[2]; 60° C./close, 4 weeks", "value": 99.47, "unit": "area %"}, {"measurement": "HPLC Reults of initial (%)", "setting": "[2]; 60° C./close, 4 weeks", "value": 100.00, "unit": "%"}, {"measurement": "HPLC Purity (area %), main peak RRT 1.00", "setting": "[2]; 60° C./close, 8 weeks", "value": 99.51, "unit": "area %"}, {"measurement": "HPLC Reults of initial (%)", "setting": "[2]; 60° C./close, 8 weeks", "value": 100.04, "unit": "%"}, {"measurement": "Area (%) peak 1, RRT 0.88", "setting": "[2]; Initial", "value": 0.23, "unit": "%"}, {"measurement": "Area (%) peak 2, RRT 1.00 (main peak)", "setting": "[2]; Initial", "value": 99.47, "unit": "%"}, {"measurement": "Area (%) peak 3, RRT 1.14", "setting": "[2]; Initial", "value": 0.10, "unit": "%"}, {"measurement": "Area (%) peak 4, RRT 1.34", "setting": "[2]; Initial", "value": 0.20, "unit": "%"}, {"measurement": "HPLC Purity (area %), main peak RRT 1.00", "setting": "[2]; Initial", "value": 99.47, "unit": "area %"}, {"measurement": "solubility at 2 h", "setting": "physchem; FaSSIF-V2, 37 °C, fassif", "value": 280, "unit": "µg/mL"}, {"measurement": "solubility at 24 h", "setting": "physchem; FaSSIF-V2, 37 °C, fassif", "value": 290, "unit": "µg/mL"}, {"measurement": "solubility at 2 h", "setting": "physchem; FeSSIF-V2, 37 °C, fessif", "value": 630, "unit": "µg/mL"}, {"measurement": "solubility at 24 h", "setting": "physchem; FeSSIF-V2, 37 °C, fessif", "value": 650, "unit": "µg/mL"}, {"measurement": "solubility at 2 h", "setting": "physchem; [4]", "value": 11, "unit": "µg/mL"}, {"measurement": "solubility at 24 h", "setting": "physchem; [4]", "value": 9.6, "unit": "µg/mL"}, {"measurement": "solubility at 2 h", "setting": "physchem; [5]", "value": 0.3, "unit": "µg/mL"}, {"measurement": "solubility at 24 h", "setting": "physchem; [5]", "value": 0.4, "unit": "µg/mL"}, {"measurement": "solubility at 2 h", "setting": "physchem; [6]", "value": 150, "unit": "µg/mL"}, {"measurement": "solubility at 24 h", "setting": "physchem; [6]", "value": 170, "unit": "µg/mL"}, {"measurement": "solubility at 2 h", "setting": "physchem; [7]", "value": 1900, "unit": "µg/mL"}, {"measurement": "solubility at 24 h", "setting": "physchem; [7]", "value": 1900, "unit": "µg/mL"}, {"measurement": "solubility at 2 h", "setting": "physchem; water, 37 °C", "value": 36, "unit": "µg/mL"}]}, {"smiles": "[2H]C([2H])(Cc1nc(-c2ccccc2)oc1C)Oc1ccc(C[C@H](OC)C(=O)O)c2sccc12", "note": "[AP-303 (818159-01-A)]", "values": [{"measurement": "Solubility", "setting": "[3]; 1,4-Dioxane", "value": "S > 46.0 mg/mL"}, {"measurement": "Solubility", "setting": "[3]; DMSO", "value": "S > 44.0 mg/mL"}, {"measurement": "Solubility", "setting": "[3]; H2O", "value": "S < 1.2 mg/mL"}, {"measurement": "Solubility", "setting": "[3]; THF", "value": "S > 42.0 mg/mL"}, {"measurement": "Solubility", "setting": "[3]; n-Heptane", "value": "S < 1.3 mg/mL"}]}]}
